The record followed here is patent US20240092739A1, “COMPOUNDS AND METHODS OF USE” (Ferro Therapeutics, Inc, priority 2020, published 2024).

For experiment [1], the system named is 786-O (renal cell carcinoma) cells. As to the kind of experiment: Cell proliferation (Alamar Blue) assay, 786-O cells. Type of experiment: cell-based. The following applies: Homo sapiens, 786-0, 786-O cells, Alamar Blue. As for the experimental part:
(§1) Cell viability assay was performed to assess the potency of the compounds in human cancer cell lines 786-0 (renal cell carcinoma) and SJSA-1 (osteosarcoma). Additional cell lines, such as pancreatic cancer cell lines (Panc 02.13, BxPC-3, Panc 12, Panc 02.03, Panc 6.03, PSN-1, HPAC, and Capan-1), prostate cancer cell lines (PC-3, DU145, […], NCI-H660, 1PH1 LNCaP, BM-1604, and MDA PCa 2b), etc., can be tested in a similar method.
(§2) Cells (SJSA-1, 786-0 and A431) were seeded (5000 cells/100 μL/well) in 96-well tissue culture plate and incubated at 37° C./500 CO2 for 16-24 hours. The cells were then treated with compounds (25 μL of 5×). The compound concentrations were 10-0.0005 μM prepared in 3-fold serial dilutions with final DMSO concentration of 1%. The plates were then incubated for 24 h at 37° C./[…] in a moist environment. Then Alamar Blue™ reagent (final concentration 1×-12.5 μL) was added to each well and incubated for 1.5 hours at 37° C./500 CO2. The plates were read on fluorescence reader at 540 nm excitation and 590 nm emission wavelengths. The IC50 values were subsequently determined using a sigmoidal dose-response curve (variable slope) in GraphPad Prism® 5 software. Tables A-3 and B-11 show cell proliferation data for exemplary compounds as described herein.
(Resazurin is reduced to fluorescent resorufin, in cell work by metabolically active cells.)

The subject of experiment [2] is 786-O cells + Ferrastatin-1. As to the kind of experiment: GPX4 inhibition assay: cell proliferation (Alamar Blue) in 786-O cells with ferrostatin rescue. Type of experiment: cell-based, human. As for the experimental part: as §2
Studies have shown that lipophilic antioxidants, such as ferrostatin, can rescue cells from GPX4 inhibition-induced ferroptosis. For instance, mesenchymal state GPX4-knockout cells can survive in the presence of ferrostatin, however, when the supply of ferrostatin is terminated, these cells undergo ferroptosis (see, e.g., Viswanathan et al., Nature 547:453-7, 2017). […] Accordingly, the ability of a molecule to induce ferroptotic cancer cell death, and that such ability is admonished by the addition of ferrostatin, is clear indication that the molecule is an GPX4 inhibitor. Cell proliferation data for exemplary compounds with and without ferrostatin can be seen in Table A-3.

Another experiment deals with A431 cells. Briefly: Cell proliferation (Alamar Blue) assay, A431 cells. As to conditions: Homo sapiens, A-431, A431 cells, Alamar Blue. Type of experiment: cell-based. As for the experimental part: as §1, §2
Where [3] appears, read: 24 h compound treatment, read-out: IC50 (μM) 786-O.
Where [4] appears, read: 786-O cells in presence of Ferrastatin-1 (rescue), read-out: IC50 (μM) 786-O + Ferrastatin-1.
[5] abbreviates: 24 h compound treatment, read-out: IC50 (μM) A431.
[6] abbreviates: 24 h compound incubation, read-out: Cell proliferation IC50 (μM) 786-O.
Setting [7] is: 786-O cells with Ferrastatin-1 (rescue), read-out: Cell proliferation IC50 (μM) 786-O + Ferrastatin-1.
[8] abbreviates: 24 h compound incubation, read-out: Cell proliferation IC50 (μM) A431.

Like-named read-outs stand apart in the source and are kept apart here.

With `C#CC(=O)N1[C@@H](CCCC)Cc2cc(OC)ccc2[C@@H]1c1cc(F)c(NC23CC4CC(CC(C4)C2)C3)c(F)c1` [Compound B-82], the IC50 in experiment [1] (setting [3]) was determined as 0.024 µM; in experiment [2] (setting [4]), 1.71 µM; in the experiment on A431 cells (setting [5]) it was 1.84 µM.
The corresponding values for `C#CC(=O)N1[C@@H](CCCC)Cc2cc(OC)ccc2[C@@H]1c1ccc(NC23CC4CC(CC(C4)C2)C3)c(Cl)c1` [Compound B-66] are 0.055 µM, 2.62 µM and 3.15 µM.
Consider `CCCC[C@H]1Cc2cc(OC)ccc2[C@H](c2ccc(N3CCC(F)(F)C3)cc2)N1C(=O)C#C[Si](C)(C)C` [Compound A-12, 1-((1S,3S)-3-butyl-1-(4-(3,3-difluoropyrrolidin-1-yl)phenyl)-6-methoxy-3,4-dihydroisoquinolin-2(1H)-yl)-3-(trimethylsilyl)prop-2-yn-1-one], for which the IC50 in experiment [1] (setting [6]) was 0.051 µM; in experiment [2] (setting [7]), above 1 µM; in the experiment on A431 cells (setting [8]), above 1 µM.
Consider `CCC[C@H]1Cc2cc(OC)ccc2[C@@H](c2ccc(NC34CC5CC(CC(C5)C3)C4)cc2)N1C(=O)C#C[Si](C)(C)C` [Compound A-4], for which the IC50 in experiment [1] (setting [6]) is 0.067 µM; in experiment [2] (setting [7]), above 1 µM; with A431 cells (setting [8]), above 1 µM.
Regarding `C#CC(=O)N1[C@@H](CCCC)Cc2cc(OC)ncc2[C@@H]1c1ccc(NC23CC4CC(CC(C4)C2)C3)cc1` [Compound B-67], the IC50 in experiment [1] (setting [3]) was determined as 0.005 µM; in experiment [2] (setting [4]), 1.19 µM; in the experiment on A431 cells (setting [5]), 1.13 µM.
As to `CCCC[C@H]1Cc2cc(OC)ccc2[C@@H](c2ccc(NC34CC5CC(CC(C5)C3)C4)c(C#N)c2)N1C(=O)C#C[Si](C)(C)C` (stereo in doubt) [Compound A-16, 2-(((3S,5S,7S)-adamantan-1-yl)amino)-5-((1R,3S)-3-butyl-6-methoxy-2-(3-(trimethylsilyl)propioloyl)-1,2,3,4-tetrahydroisoquinolin-1-yl)benzonitrile], the IC50 was 0.016 µM in experiment [1] (setting [6]), above 10 µM in experiment [2] (setting [7]) and at least 10 µM in the experiment with A431 cells (setting [8]).
`C#CC(=O)N1[C@@H](CCCC)Cc2cc(CO)ccc2[C@@H]1c1ccc(NC23CC4CC(CC(C4)C2)C3)cc1` [Compound B-62]: the IC50 worked out at 0.005 µM in experiment [1] (setting [3]), 7.15 µM in experiment [2] (setting [4]) and 2.43 µM in the experiment on A431 cells (setting [5]).
With `CCCC[C@H]1Cc2cc(OC)ccc2[C@H](c2ccc(NC34CC5CC(C3)CC(OC(=O)[C@@H](N)C(C)C)(C5)C4)cc2)N1C(=O)C#C[Si](C)(C)C` [Compound A-45], the IC50 stood at 0.0177 µM in experiment [1] (setting [6]), 2.04 µM in experiment [2] (setting [7]) and 1.7 µM in the experiment on A431 cells (setting [8]).
As for `C#CC(=O)N1[C@@H](CCCC)Cc2cc(OC)ccc2[C@@H]1c1cccc(NC23CC4CC(CC(C4)C2)C3)c1` [Compound B-74], the IC50 in experiment [1] (setting [3]) stood at 0.025 µM; in experiment [2] (setting [4]) it was 1.91 µM; in the experiment on A431 cells (setting [5]), 3.06 µM.
For the molecule `CCCC[C@H]1Cc2cc(OC)ccc2[C@H](c2ccc(NC3CC(F)(F)C3)cc2)N1C(=O)C#C[Si](C)(C)C` [Compound A-11, 1-((1S,3S)-3-butyl-1-(4-((3,3-difluorocyclobutyl)amino)phenyl)-6-methoxy-3,4-dihydroisoquinolin-2(1H)-yl)-3-(trimethylsilyl)prop-2-yn-1-one], the IC50 was 0.109 µM in experiment [1] (setting [6]), above 1 µM in experiment [2] (setting [7]) and above 1 µM in the experiment with A431 cells (setting [8]).
For `C#CC(=O)N1[C@@H](CCCC)Cc2cc(OC)ccc2[C@H]1c1ccc(NC23CC4CC(CC(C4)C2)C3)c(C#N)c1` [Compound B-81], the IC50 in experiment [1] (setting [3]) was 0.01 µM; in experiment [2] (setting [4]) it was at least 10 µM; with A431 cells (setting [5]), 4.9 µM.
The corresponding values for `C#CC(=O)N1[C@@H](CCCC)Cc2cc(OCCOC(=O)CN)ccc2[C@@H]1c1ccc(NC23CC4CC(CC(C4)C2)C3)cc1` [Compound B-57] are 0.005 µM, 2.81 µM and 2.88 µM.
In the case of `CCCC[C@H]1Cc2cc(OCCO)ccc2[C@H](c2ccc(NC34CC5CC(CC(C5)C3)C4)cc2)N1C(=O)C#C[Si](C)(C)C` [Compound A-44], the values for the IC50 (in experiment [1] (setting [6]); in experiment [2] (setting [7]); in the experiment with A431 cells (setting [8])) were 0.0053 µM, 2.82 µM and 2.24 µM, respectively.
On to `C#CC(=O)N1[C@@H](CCCC)Cc2cc(NC(=O)C3CCCN3)ccc2[C@@H]1c1ccc(NC23CC4CC(CC(C4)C2)C3)cc1` (stereo partly drawn) [Compound B-58], for which the IC50 was 0.011 µM in experiment [1] (setting [3]), 2.36 µM in experiment [2] (setting [4]) and 0.856 µM in the experiment on A431 cells (setting [5]).
In the case of `COC[C@H]1Cc2cc(OC)ccc2[C@@H](c2ccc(NC34CC5CC(CC(C5)C3)C4)cc2)N1C(=O)C#C[Si](C)(C)C` [Compound A-5], the IC50 is 0.039 µM in experiment [1] (setting [6]), above 1 µM in experiment [2] (setting [7]) and above 1 µM in the experiment with A431 cells (setting [8]).
For the molecule `C#CC(=O)N1[C@@H](CCCC)Cc2cc(OC)ccc2[C@@H]1c1ccc(NC23CC4CC(CC(O)(C4)C2)C3)cc1` [Compound B-13], the IC50 in experiment [1] (setting [3]) came out at 0.055 µM; in experiment [2] (setting [4]), 2.01 µM; in the experiment on A431 cells (setting [5]) it was 1.49 µM.
On to `CCCC[C@H]1Cc2cc(OC)ccc2[C@H](c2ccc(NC34CC5CC(CC(O)(C5)C3)C4)cc2)N1C(=O)C#C[Si](C)(C)C` [Compound A-47], for which the IC50 in experiment [1] (setting [6]) amounted to 0.049 µM; in experiment [2] (setting [7]), 2.33 µM; in the experiment on A431 cells (setting [8]) it was 1.63 µM.
The corresponding values for `CCCC[C@H]1Cc2cc(OC)ccc2[C@H](c2ccc(C#N)cc2)N1C(=O)C#C[Si](C)(C)C` [Compound A-1] are 0.043 µM, 7 µM and above 10 µM.
As to `C#CC(=O)N1[C@@H](CCCC)Cc2cc(CCC(=O)O)ccc2[C@@H]1c1ccc(NC23CC4CC(CC(C4)C2)C3)cc1` [Compound B-55], the figures for the IC50 (in experiment [1] (setting [3]); in experiment [2] (setting [4]); with A431 cells (setting [5])) were 0.046 µM, at least 10 µM and at least 10 µM, respectively.
For `C#CC(=O)N1[C@@H](CCCC)Cc2cc(C#N)ccc2[C@@H]1c1ccc(NC23CC4CC(CC(C4)C2)C3)cc1` [Compound B-78], the IC50 in experiment [1] (setting [3]) was found to be 0.004 µM; in experiment [2] (setting [4]), 0.662 µM; in the experiment with A431 cells (setting [5]) it was 0.569 µM.
In the case of `COc1ccc2c(c1)C[C@H](CC(C)C)N(C(=O)C#C[Si](C)(C)C)[C@H]2c1ccc(NC23CC4CC(CC(C4)C2)C3)cc1` [Compound A-43], the IC50 in experiment [1] (setting [6]) was determined as 0.0725 µM; in experiment [2] (setting [7]), 2.13 µM; with A431 cells (setting [8]) it was 1.83 µM.
Consider `C#CC(=O)N1[C@@H](CCCC)Cc2cc(OC)ccc2[C@@H]1c1ccc(NC23CC4CC(CC(C4)C2)C3)cc1F` [Compound B-83], for which the IC50 was determined as 2.79 µM in experiment [1] (setting [3]), 6.59 µM in experiment [2] (setting [4]) and 7.87 µM in the experiment on A431 cells (setting [5]).
`CCCC[C@H]1Cc2cc(C(F)(F)F)ccc2[C@H](c2ccc(NC34CC5CC(CC(C5)C3)C4)cc2)N1C(=O)C#C[Si](C)(C)C` [Compound A-28]: the figures for the IC50 (in experiment [1] (setting [6]); in experiment [2] (setting [7]); with A431 cells (setting [8])) were 0.015 µM, 3.58 µM and 2.94 µM, respectively.
As for `C#CC(=O)N1[C@@H](CCCC)Cc2cc(CCCO)ccc2[C@@H]1c1ccc(NC23CC4CC(CC(C4)C2)C3)cc1` [Compound B-56], the IC50 in experiment [1] (setting [3]) was 0.012 µM; in experiment [2] (setting [4]), 1.27 µM; in the experiment with A431 cells (setting [5]), 0.117 µM.
The corresponding values for `C#CC(=O)N1[C@@H](CCCC)Cc2cc(OCc3cn(CCOCCOCCOCCNC(=O)CCCC[C@@H]4SC[C@@H]5NC(=O)N[C@@H]54)nn3)ccc2[C@@H]1c1ccc(NC23CC4CC(CC(C4)C2)C3)cc1` [Compound B-65] are at least 10 µM, at least 10 µM and at least 10 µM.
Regarding `CCCC[C@H]1Cc2cc(OC)ccc2[C@H](C23CC(F)(C2)C3)N1C(=O)C#C[Si](C)(C)C` [Compound A-9, 1-((1S,3S)-3-butyl-1-(3-fluorobicyclo[1.1.1]pentan-1-yl)-6-methoxy-3,4-dihydroisoquinolin-2(1H)-yl)-3-(trimethylsilyl)prop-2-yn-1-one], the IC50 in experiment [1] (setting [6]) is 0.18 µM; in experiment [2] (setting [7]) it was above 1 µM; in the experiment with A431 cells (setting [8]), above 1 µM.
`CCCC[C@H]1Cc2cc(OC(F)(F)F)ccc2[C@H](c2ccc(NC34CC5CC(CC(C5)C3)C4)cc2)N1C(=O)C#C[Si](C)(C)C` [Compound A-26, 1-((1S,3S)-1-(4-(((3R,5R,7R)-adamantan-1-yl)amino)phenyl)-3-butyl-6-(trifluoromethoxy)-3,4-dihydroisoquinolin-2(1H)-yl)-3-(trimethylsilyl)prop-2-yn-1-one]: the figures for the IC50 (in experiment [1] (setting [6]); in experiment [2] (setting [7]); with A431 cells (setting [8])) were 0.043 µM, 4.19 µM and 3.05 µM, respectively.
